Data published in US9194863B2, “Treatment of pain” (priority 2011, dated 2015).
Values belong to the compound of their own block, whether it stands above or below them.

Legend:
TG neurons [1] = experiment: Whole-cell patch-clamp on TG neurons; type: cell-based, mouse
Experimental: (§1) Whole-cell membrane currents were measured with an EPC-10 (HEKA Elektronik, Lambrecht, Germany). The sampling rate was 20 kHz and currents were digitally filtered at 2.9 kHz. For recordings on HEK293T cells, the extracellular solution contained (in mM): 138 NaCl, 5.4 KCl, 2 MgCl2, 2 CaCl2, 10 glucose, 10 HEPES (pH 7.2 with NaOH), and the pipette solution contained (in mM): 100 CsAsp, 45 CsCl, 10 EGTA, 10 HEPES, 1 MgCl (pH 7.2 with CsOH). For recordings on sensory neurons, the extracellular solution contained (in mM): 140 NaCl, 4 KCl, 2 MgCl2, 100 nM TTX, 10 TRIS (pH 7.4 with HCl), and the pipette solution contained (in mM): 140 CsCl, 0.6 MgCl2, 1 EGTA, 10 HEPES, 5 TEA (pH 7.2 with CsOH). To determine the I-V relationship of PS induced currents in neurons, all measurements were performed under monovalent free extracellular conditions in order to suppress other cationic conductances present in DRG neurons. The extracellular solution contained in mM 2 CaCl2, 2 MgCl2, 10 HEPES, 280 D-Mannitol (pH 7.2 with NMDG).

TRPV1 [2] = biological target: T1, TRPV1 (Homo sapiens, UniProt Q8NER1); experiment: Intracellular Ca2+ responses in HEK293T cells transiently expressing TRPV1; type: cell-based; settings: PS 20 μM, capsaicin 2 μM
T1 construct: expressed in transfected cells; host or cells: HEK293T, transient
Experimental: (§2) Fura-2-based ratiometric intracellular Ca^2+ measurements were performed as described previously (Vriens et al., 2007). The following procedure was used to distinguish stimulus-induced responses from background variations in fluorescence. First, we calculated the time derivative of the fluorescence ratio (dRatio/dt), and the standard deviation (SD) of dRatio/dt in the absence of any stimulus. A positive response was noted when a stimulus caused an increase of dRatio/dt exceeding 5×SD. […] For every condition, a minimum of 100 cells derived from at least three separated isolations and in at least twelve independent measurements were analyzed.

DRG neurons = experiment: Fura-2 intracellular Ca2+ imaging in isolated DRG neurons; type: cell-based, mouse; settings: for fraction of sensitive DRG neurons in Trpm3−/− preparations versus Trpm3+/+: Trpm3−/− mice
Experimental: (§3) Human embryonic kidney cells, HEK293T, were grown in Dulbecco's modified Eagle's medium (DMEM) containing 10% (v/v) human serum, 2 mM L-glutamine, 2 units/ml penicillin, and 2 mg/ml streptomycin at 37° C. in a humidity-controlled incubator with 10% CO2. HEK293T cells were transiently transfected with murine TRPM3α2 (accession number AJ 544535) in the bicistronic pCAGGS/IRES-GFP vector, using Mirus TransIT-293 (Mirus corporation; Madison USA). Transfected cells were visualized by green fluorescence protein (GFP) expression whereas GFP negative cells from the same batch were used as controls. TG and DRG neurons from adult (postnatal weeks 8-12) male mice were isolated as described previously (Karashima et al., 2007). HEK293T cells stably transfected with TRPM3α2 were developed using the Flp-In System (Invitrogen).
as §2

TG neurons [3] = experiment: Fura-2 intracellular Ca2+ imaging in isolated TG neurons; type: cell-based, mouse; settings: for fraction of sensitive TG neurons in Trpm3−/− preparations versus Trpm3+/+: Trpm3−/− mice
Experimental: as §3, §2

TRPM3α2 [4] = biological target: T2, TRPM3α2 (Mus musculus, UniProt J9SQF3); experiment: Intracellular Ca2+ responses in HEK293T cells transiently expressing TRPM3; type: cell-based, murine; settings: PS 20 μM, capsaicin 2 μM
T2 construct: expressed in transfected cells; host or cells: HEK293T, transient
Experimental: as §3
as §2, with “stimulus.” for “stimulus. A positive response was noted when a stimulus caused an increase of dRatio/dt exceeding 5×SD.”

mice [5] = experiment: Nocifensive behavior after injection into the plantar skin of the hind paw; type: in vivo, mouse
Experimental: (§4) Hind paw injections, drinking tests, thermal gradient tests, temperature choice tests, hot plate, cold plate, tail clip and tail immersion assays were performed as previously described (Cao et al., 1998; Caterina et al., 2000; Karashima et al., 2009; Mocrich et al., 2005). To evoke inflammatory hyperalgesia, Complete Freund's Adjuvant (CFA, Sigma) (50 μl) was injected intraplantarly in both hindpaws 24 h before behavioral testing. Corn oil was used as vehicle control. To obtain pharmacological inhibition of TRPV1, AMG 9810 (Tocris Bioscience) dissolved in DMSO was injected i.p at 3 mg/kg during consecutive 7 days (Gavva et al., 2007; Gavva et al., 2005). DMSO was used as vehicle control. All animal experiments were carried out in accordance with the European Union Community Council guidelines and were approved by the local ethics committee.

TRPM3 [6] = biological target: T3, TRPM3 (Mus musculus, UniProt J9SQF3); experiment: Ca2+ imaging of TRPM3-mediated responses in the presence of AMG 9810; type: cell-based
Experimental: as §2

TRPV1 [7] = biological target: T1, TRPV1; experiment: Ca2+ imaging of TRPV1-mediated responses in the presence of AMG 9810; type: cell-based
TRPA1 = TRPA1 (Homo sapiens, UniProt O75762); settings: read-out: EC50 as agonist of TRPA1; cited from earlier work
TRPM3 [8] = biological target: T3, TRPM3; settings: cited from earlier work
TRPM3 [9] = biological target: T3, TRPM3; experiment: Intracellular Ca2+ increase by low doses of PS at room temperature and 37° C., HEK293T stably expressing TRPM3; type: cell-based, murine; set-up: expressed in transfected cells; settings: 100 nM PS
Experimental: as §3
as §2, with “stimulus.” for “stimulus. A positive response was noted when a stimulus caused an increase of dRatio/dt exceeding 5×SD.”

TRPM3α2 [10] = biological target: T2, TRPM3α2; experiment: 96 well plate Fluo-4 assay of temperature-dependent Ca2+ responses, HEK293T stably expressing TRPM3; type: cell-based, murine; settings: PS at 10 μM
Experimental: To determine an average temperature-response relation for TRPM3, we also used a fluo-4-based assay using 96 well plates and the 7500 Real-Time PCR system (Applied Biosystems). HEK293T cells stably expressing murine TRPM3α2 (FIG. 9B) or non transfected HEK293T cells were loaded with Fluo-4-AM for 30 min, trypsinized, centrifuged, resuspended in a solution containing (in mM) 150 NaCl, 6 KCl, 2 MgCl2, 2 CaCl2, and 10 HEPES (pH 7.4 with NaOH) and transferred to a 96-well plate (at 15000-25000 cells/well; 50 μl). When indicated, PS (10 μM) was added to the wells. Fluo-4 fluorescence was measured while the well temperature was raised from 16 to 43° C. in 3-degrees steps. Background-subtracted fluorescence signals were used to calculate temperature-induced changes in fluorescence as ΔF/F16 °C, where F16 °C is the background corrected fluorescence at 16° C. and ΔF=F−F16 °C. The neurosteroids pregnenolone sulphate, progesterone and the TRPV1 activator capsaicin (all Sigma) were applied at indicated concentrations from a respectively 100 mM, 250 mM and 10 mM stock solution in DMSO.

mice [11] = experiment: Aversive drinking test; type: in vivo, mouse; settings: PS 750 μM in drinking water
Experimental: To evaluate the contribution of TRPM3 to trigeminal nociception, we used an aversive drinking test (Caterina et al., 2000). Over a period of 3 days, mice were allowed to drink from a bottle of water for only 1 hour/day. On the fourth day, this solution was supplemented with PS (750 μM). In Trpm3^+/+ mice, this evoked a modest but significant aversion, as evidenced by a 30% reduction in consumed water volume (FIG. 4C).
as §4

TRPM3 [12] = biological target: T3, TRPM3; experiment: Whole-cell current measurements in TRPM3-expressing HEK293T cells; type: cell-based, murine; set-up: expressed in transfected cells; settings: PS 5 μM
Experimental: as §1

[13] = Trpv1−/−, Trpa1−/− and combined Trpv1−/−/Trpa1−/− mice
[14] = Trpm3+/+ mice, PS 2.5 and 5 nmol/paw, progesterone 25 nmol/paw

T3 sequence (J9SQF3 1-1709 isoform J9SQF3-12): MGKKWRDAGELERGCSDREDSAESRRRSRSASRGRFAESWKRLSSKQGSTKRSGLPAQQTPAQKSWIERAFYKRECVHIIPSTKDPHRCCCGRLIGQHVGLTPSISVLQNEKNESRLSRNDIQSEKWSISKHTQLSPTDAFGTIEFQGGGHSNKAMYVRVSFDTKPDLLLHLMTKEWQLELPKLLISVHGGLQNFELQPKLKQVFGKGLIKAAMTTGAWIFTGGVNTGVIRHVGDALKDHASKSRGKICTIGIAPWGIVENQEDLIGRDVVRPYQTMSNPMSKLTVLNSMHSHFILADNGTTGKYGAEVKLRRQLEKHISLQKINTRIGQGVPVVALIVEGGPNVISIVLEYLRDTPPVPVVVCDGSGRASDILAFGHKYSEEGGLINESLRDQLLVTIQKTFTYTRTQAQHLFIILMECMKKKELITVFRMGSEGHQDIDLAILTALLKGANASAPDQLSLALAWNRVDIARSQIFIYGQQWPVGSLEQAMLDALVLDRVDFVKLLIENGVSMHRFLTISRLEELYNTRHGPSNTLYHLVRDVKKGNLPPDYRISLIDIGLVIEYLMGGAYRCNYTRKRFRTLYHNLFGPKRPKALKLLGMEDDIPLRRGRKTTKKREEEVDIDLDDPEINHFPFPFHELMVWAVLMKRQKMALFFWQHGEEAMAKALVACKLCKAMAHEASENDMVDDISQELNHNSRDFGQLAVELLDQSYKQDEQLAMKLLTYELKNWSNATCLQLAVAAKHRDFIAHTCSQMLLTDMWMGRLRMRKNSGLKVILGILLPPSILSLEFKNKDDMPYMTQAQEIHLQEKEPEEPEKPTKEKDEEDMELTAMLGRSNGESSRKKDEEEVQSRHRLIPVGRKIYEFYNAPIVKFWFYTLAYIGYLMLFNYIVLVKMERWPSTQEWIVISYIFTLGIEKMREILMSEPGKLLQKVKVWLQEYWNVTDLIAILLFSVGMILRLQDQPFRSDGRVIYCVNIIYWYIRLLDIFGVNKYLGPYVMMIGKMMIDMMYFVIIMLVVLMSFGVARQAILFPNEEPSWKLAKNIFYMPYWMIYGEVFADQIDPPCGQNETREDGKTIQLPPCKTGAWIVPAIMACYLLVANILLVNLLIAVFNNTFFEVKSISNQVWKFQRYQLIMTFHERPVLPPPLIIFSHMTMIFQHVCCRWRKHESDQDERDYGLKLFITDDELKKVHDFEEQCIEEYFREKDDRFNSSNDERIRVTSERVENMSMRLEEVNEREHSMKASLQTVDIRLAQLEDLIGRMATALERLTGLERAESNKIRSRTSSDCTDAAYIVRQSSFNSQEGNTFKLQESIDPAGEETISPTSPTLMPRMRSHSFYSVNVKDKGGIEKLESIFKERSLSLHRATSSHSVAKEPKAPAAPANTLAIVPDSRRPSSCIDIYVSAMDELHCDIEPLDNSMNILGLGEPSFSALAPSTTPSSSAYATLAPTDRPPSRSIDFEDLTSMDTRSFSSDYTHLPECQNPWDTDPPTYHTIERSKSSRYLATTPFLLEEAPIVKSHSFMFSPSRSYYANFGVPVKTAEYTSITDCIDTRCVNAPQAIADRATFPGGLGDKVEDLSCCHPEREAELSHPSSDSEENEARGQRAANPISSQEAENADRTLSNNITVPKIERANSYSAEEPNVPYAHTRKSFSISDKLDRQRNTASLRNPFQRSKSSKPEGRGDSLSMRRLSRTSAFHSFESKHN
T2 sequence (J9SQF3 1-1709 isoform J9SQF3-12): as above
T1 sequence (Q8NER1 whole entry, species assumed): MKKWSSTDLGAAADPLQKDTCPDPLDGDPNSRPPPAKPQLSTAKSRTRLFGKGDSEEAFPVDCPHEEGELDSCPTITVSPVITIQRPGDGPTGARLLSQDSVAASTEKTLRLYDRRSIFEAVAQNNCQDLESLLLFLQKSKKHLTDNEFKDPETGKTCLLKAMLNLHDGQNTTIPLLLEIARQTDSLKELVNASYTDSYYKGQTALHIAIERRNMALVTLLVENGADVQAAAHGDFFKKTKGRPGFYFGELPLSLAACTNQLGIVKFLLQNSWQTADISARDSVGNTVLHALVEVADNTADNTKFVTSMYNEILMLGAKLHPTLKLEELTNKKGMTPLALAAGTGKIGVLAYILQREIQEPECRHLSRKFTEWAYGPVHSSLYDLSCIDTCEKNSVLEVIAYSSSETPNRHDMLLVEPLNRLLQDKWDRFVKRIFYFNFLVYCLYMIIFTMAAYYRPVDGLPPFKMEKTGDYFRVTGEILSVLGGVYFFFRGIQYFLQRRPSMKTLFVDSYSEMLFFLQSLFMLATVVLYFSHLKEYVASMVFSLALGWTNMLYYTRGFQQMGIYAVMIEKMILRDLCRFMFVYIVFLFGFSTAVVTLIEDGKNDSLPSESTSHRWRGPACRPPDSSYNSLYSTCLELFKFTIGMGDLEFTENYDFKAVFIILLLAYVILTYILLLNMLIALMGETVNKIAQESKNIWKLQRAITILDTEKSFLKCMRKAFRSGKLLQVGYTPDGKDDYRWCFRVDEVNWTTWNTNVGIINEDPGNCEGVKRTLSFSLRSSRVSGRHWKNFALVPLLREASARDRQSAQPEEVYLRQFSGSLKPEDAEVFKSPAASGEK
TRPA1, sequence (O75762 whole entry, species assumed): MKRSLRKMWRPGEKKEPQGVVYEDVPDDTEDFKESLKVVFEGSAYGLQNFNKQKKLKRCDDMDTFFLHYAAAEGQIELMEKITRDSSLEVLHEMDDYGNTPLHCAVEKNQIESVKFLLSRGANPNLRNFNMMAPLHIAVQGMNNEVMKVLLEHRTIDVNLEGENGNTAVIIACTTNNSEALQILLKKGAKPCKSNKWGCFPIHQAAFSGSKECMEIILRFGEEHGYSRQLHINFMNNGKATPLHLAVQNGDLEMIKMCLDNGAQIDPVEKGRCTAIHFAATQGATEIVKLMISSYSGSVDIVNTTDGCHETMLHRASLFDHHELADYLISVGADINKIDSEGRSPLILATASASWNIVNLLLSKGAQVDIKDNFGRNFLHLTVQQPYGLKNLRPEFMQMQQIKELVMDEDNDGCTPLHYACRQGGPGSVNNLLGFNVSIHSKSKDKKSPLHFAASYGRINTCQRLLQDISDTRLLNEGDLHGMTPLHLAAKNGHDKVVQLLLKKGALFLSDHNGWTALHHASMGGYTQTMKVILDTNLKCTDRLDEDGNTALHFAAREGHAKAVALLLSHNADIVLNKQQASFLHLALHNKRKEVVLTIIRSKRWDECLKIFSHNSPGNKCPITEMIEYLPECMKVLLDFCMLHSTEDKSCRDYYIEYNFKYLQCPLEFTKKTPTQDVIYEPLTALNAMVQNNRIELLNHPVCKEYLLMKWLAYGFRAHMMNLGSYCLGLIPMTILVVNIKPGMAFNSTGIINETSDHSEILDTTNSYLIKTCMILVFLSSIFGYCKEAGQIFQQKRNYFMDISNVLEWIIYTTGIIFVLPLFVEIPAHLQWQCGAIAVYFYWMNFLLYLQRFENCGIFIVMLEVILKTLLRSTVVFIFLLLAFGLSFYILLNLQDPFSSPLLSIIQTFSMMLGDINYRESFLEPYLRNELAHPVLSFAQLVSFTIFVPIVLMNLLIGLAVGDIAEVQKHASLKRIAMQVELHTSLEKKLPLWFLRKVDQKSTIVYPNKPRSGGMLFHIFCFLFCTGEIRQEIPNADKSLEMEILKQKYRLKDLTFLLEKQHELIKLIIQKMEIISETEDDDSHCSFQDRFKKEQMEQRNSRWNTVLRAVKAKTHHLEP

intracellular Ca2+ response of TRPV1-expressing cells (TRPV1 [2]): responded
intracellular Ca2+ response of TRPM3-expressing cells (TRPM3α2 [4]): insensitive
Structure (SMILES): COc1cc(CNC(=O)CCCC/C=C/C(C)C)ccc1O [capsaicin]
TG neurons responding to capsaicin (TG neurons [1]; Trpm3+/+ mice, 13 of 23): 57%
TG neurons responding to capsaicin (TG neurons [1]; Trpm3−/− mice, 11 of 21): 53%
fraction of sensitive DRG neurons in Trpm3−/− preparations versus Trpm3+/+ (DRG neurons): not changed
fraction of sensitive TG neurons in Trpm3−/− preparations versus Trpm3+/+ (TG neurons [3]): not changed
nocifensive behavior (paw licking and lifting) (mice [5]; Trpm3−/− mice): evoked the normal nocifensive behavior

Structure (SMILES): C=CCN=C=S [MO, mustard oil]
fraction of sensitive DRG neurons in Trpm3−/− preparations versus Trpm3+/+ (DRG neurons): not changed
fraction of sensitive TG neurons in Trpm3−/− preparations versus Trpm3+/+ (TG neurons [3]): not changed

TRPM3-mediated heat (42° C.) and PS (40 μM) responses (TRPM3 [6]): unaltered
TRPV1-mediated heat (42° C.) and capsaicin (2 μM) responses (TRPV1 [7]): full inhibition
Structure (SMILES): CC(C)(C)c1ccc(/C=C/C(=O)Nc2ccc3c(c2)OCCO3)cc1 [AMG 9810, (E)-3-(4-t-butylphenyl)-N-(2,3-dihydrobenzo[b][1,4]dioxin-6-yl)acrylamide]
effect on percentage of heat responders in DRG neurons (DRG neurons; AMG 9810 5 μM): significantly reduced
effect on capsaicin responses in DRG neurons (DRG neurons; AMG 9810 5 μM, Trpm3+/+ and Trpm3−/− DRG neurons): completely eliminated
heat-responsive cells remaining after treatment (DRG neurons; Trpm3−/− neurons, AMG 9810 5 μM): substantial fraction of heat-responsive cells

Structure (SMILES): COC(=O)C1=C(C)NC(C)=C(C(=O)OC)C1c1ccccc1[N+](=O)[O-] [nifedipine]
EC50 (TRPA1): 0.4 µM
EC50 (TRPM3 [8]; read-out: EC50 as agonist of TRPM3): 30 µM

Structure (SMILES): CC(=O)C1CCC2C3CC=C4CC(OS(=O)(=O)O)CCC4(C)C3CCC12C (centres unmarked) [PS, pregnenolone sulphate]
Ca2+ response to PS (TRPM3 [9]; 37° C.): evoked robust responses
Ca2+ response to PS (TRPM3 [9]; room temperature): subthreshold
TG neurons with inward currents of more than 10 pA (TG neurons [1]; Trpm3+/+ mice, 15 of 23): 65%
TG neurons with inward currents of more than 10 pA (TG neurons [1]; Trpm3−/− mice, 0 of 21): never observed
TG neurons with inward currents of more than 10 pA (TG neurons [1]; Trpv1−/−/Trpa1−/− mice, 9 of 17): 53%
DRG neurons with robust and reversible calcium signals (DRG neurons; Trpm3+/+ mice, n=303, PS 10 μM): 58%
fraction of sensitive DRG neurons in Trpm3−/− preparations versus Trpm3+/+ (DRG neurons): drastically decreased
responses in DRG neurons from TRPV1/TRPA1 knockout mice (DRG neurons; [13]): conserved
shift of the thermal response profile to lower temperatures (TRPM3α2 [10]): 6.1±0.4 degrees
reduction in consumed water volume (mice [11]; Trpm3+/+ mice): 30%
aversive response in drinking test (mice [11]; Trpm3−/− mice): no aversive response
current response to a low dose of PS at higher temperatures (TRPM3 [12]): strongly potentiated
TG neurons with robust and reversible calcium signals (TG neurons [3]; Trpm3+/+ mice, n=273, PS 10 μM): 57%
fraction of sensitive TG neurons in Trpm3−/− preparations versus Trpm3+/+ (TG neurons [3]): drastically decreased
responses in TG neurons from TRPV1/TRPA1 knockout mice (TG neurons [3]; [13]): conserved
intracellular Ca2+ response of TRPM3-expressing cells (TRPM3α2 [4]): robust responses
nocifensive behavior (paw licking and lifting) (mice [5]; [14]): evoked strong nocifensive behavior
nocifensive behavior (paw licking and lifting) (mice [5]; Trpm3−/− mice): completely lacked this nocifensive response
nocifensive behavior (paw licking and lifting) (mice [5]; combined Trpv1−/−/Trpa1−/− knockout mice): elicited a nocifensive response that was similar to that observed in Trpm3^+/+ mice

Structure (SMILES): CC(=O)[C@H]1CC[C@H]2[C@@H]3CCC4=CC(=O)CC[C@]4(C)[C@H]3CC[C@]12C [progesterone]
TRPM3 agonist activity (TRPM3 [8]): no TRPM3 agonist activity
nocifensive behavior (paw licking and lifting) (mice [5]; [14]): did not evoke measurable nociceptive responses
nocifensive behavior (paw licking and lifting) (mice [5]; Trpm3−/− mice): did not evoke measurable nociceptive responses
